In ChEMBL document CHEMBL1145122, “Structure-based design of novel guanidine/benzamidine mimics: potent and orally bioavailable factor Xa inhibitors as novel anticoagulants” (J Med Chem, 2003):

Legend:
[1] = in vivo; settings: dog, po
[2] = molecular target: Coagulation factor X (Homo sapiens, UniProt P00742); assay: Inhibitory activity against Coagulation factor X (FXa)
[3] = molecular target: Prothrombin (Homo sapiens, UniProt P00734); assay: Inhibitory activity against Thrombin
[4] = in vivo; settings: dog
[5] = physchem; settings: octanol/water
[6] = organism: Oryctolagus cuniculus; assay: Concentration required for inhibition of thrombus formation in rabbit arterial-venous shunt antithrombosis model; type: functional, organism-based
[7] = in vivo; settings: dog; remark: listed apart in the source
[8] = system: plasma protein binding (Homo sapiens); assay: Percentage binding to human plasma proteins
[9] = organism: Oryctolagus cuniculus; assay: Dose required for inhibition of thrombus formation in rabbit arterial-venous shunt antithrombosis model; type: functional
[10] = physchem
[11] = in vivo; settings: dog, po; remark: listed apart in the source
[12] = in vivo; settings: dog, iv
[13] = molecular target: Trypsin (Homo sapiens, UniProt P07477+P07478+P35030); assay: Inhibition of Trypsin; type: protein assay
[14] = in vivo; settings: dog, po; remark: listed apart in the source
[15] = physchem; settings: octanol/water; remark: listed apart in the source

Coagulation factor X, sequence (P00742 41-179 limits assumed): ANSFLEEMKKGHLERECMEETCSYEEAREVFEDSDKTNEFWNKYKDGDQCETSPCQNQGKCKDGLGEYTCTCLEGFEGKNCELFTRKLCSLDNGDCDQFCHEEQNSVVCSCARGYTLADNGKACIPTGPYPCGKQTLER
Coagulation factor X, sequence (P00742 235-488 limits assumed): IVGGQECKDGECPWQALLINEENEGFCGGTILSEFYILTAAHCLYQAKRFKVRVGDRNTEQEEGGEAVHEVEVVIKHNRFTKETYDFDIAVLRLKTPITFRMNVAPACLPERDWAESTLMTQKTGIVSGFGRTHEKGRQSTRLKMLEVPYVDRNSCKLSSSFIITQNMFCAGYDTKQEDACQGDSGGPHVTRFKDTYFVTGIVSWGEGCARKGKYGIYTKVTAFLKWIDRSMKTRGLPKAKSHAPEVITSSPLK

| Ki [2] | Ki [3] | pKa [10] | Ki [13] | Compound | also measured |
| --- | --- | --- | --- | --- | --- |
| 0.33 nM | 6500 nM | 6.7 | 2600 nM | Cc1cc(C(=O)Nc2ccc(-c3ccccc3S(N)(=O)=O)cc2)n(-c2ccc3ccnc(N)c3c2)n1 | half-life [1]: 4.4 h; clearance [4]: 5.5 mL/min/kg; logP [5]: 2.6; IC50 [6]: 690 nM; Vd [7]: 1.2 L/kg; Binding [8]: 89%; ID50 [9]: 1.2 µM/h/kg; bioavailability [11]: 13%; half-life [12]: 3.4 h |
| 29 nM | > 21000 nM |  |  | Cc1cc(C(=O)Nc2ccc(-c3ccccc3S(N)(=O)=O)cc2)n(-c2ccc3[nH]nc(N)c3c2)n1 |  |
| 11 nM | > 21000 nM | < 0 | > 1600 nM | COc1ccc(-n2nc(C)cc2C(=O)Nc2ccc(-c3ccccc3S(N)(=O)=O)cc2)cc1 | half-life [1]: 4.5 h; clearance [4]: 1.5 mL/min/kg; logP [5]: 2.9; bioavailability [14]: 48%; Vd [7]: 0.52 L/kg; half-life [12]: 4.5 h |
| 63 nM | > 21000 nM | 4.7 | > 1600 nM | Cc1cc(C(=O)Nc2ccc(-c3ccccc3S(N)(=O)=O)cc2)n(-c2cccc(N)c2)n1 |  |
| 370 nM | > 21000 nM | 5.4 | > 1600 nM | Cc1cc(C(=O)Nc2ccc(-c3ccccc3S(N)(=O)=O)cc2)n(-c2ccc3ccncc3c2)n1 |  |
| 37 nM | > 21000 nM |  | > 1600 nM | Cc1cc(C(=O)Nc2ccc(-c3ccccc3S(N)(=O)=O)cc2)n(-c2cccc(Cl)c2)n1 |  |
| 198 nM | > 21000 nM |  | > 1600 nM | Cc1cc(C(=O)Nc2ccc(-c3ccccc3S(N)(=O)=O)cc2)n(-c2ccccc2)n1 |  |
|  | > 21000 nM | 10 |  | Cc1cc(C(=O)Nc2ccc(-c3ccccc3S(N)(=O)=O)cc2)n(C2CCCNC2)n1 (stereo unspecified) |  |
| 1.4 nM | > 21000 nM | < 2.3 | > 1600 nM | Cc1cc(C(=O)Nc2ccc(-c3ccccc3S(N)(=O)=O)cc2)n(-c2ccc3onc(N)c3c2)n1 | half-life [1]: 3.2 h; clearance [4]: 5 mL/min/kg; logP [15]: 2.3; bioavailability [14]: 26%; Vd [7]: 0.7 L/kg; half-life [12]: 2.8 h |
| 310 nM | > 21000 nM |  |  | Cc1cc(C(=O)Nc2ccc(-c3ccccc3S(N)(=O)=O)cc2)n(-c2cccc(C#N)c2)n1 |  |
| 19 nM | > 21000 nM | 7 | > 1600 nM | Cc1cc(C(=O)Nc2ccc(-c3ccccc3S(N)(=O)=O)cc2)n(-c2cccc(C(=N)NO)c2)n1 |  |
| 2800 nM | > 21000 nM |  | > 1600 nM | Cc1cc(C(=O)Nc2ccc(-c3ccccc3S(N)(=O)=O)cc2)n(-c2ccc3c(N)[nH]nc3c2)n1 |  |
| 2700 nM | > 21000 nM |  |  | Cc1cc(C(=O)Nc2ccc(-c3ccccc3S(N)(=O)=O)cc2)n(-c2cccc(S(C)=N)c2)n1 (stereo unspecified) |  |
| 29 nM | > 21000 nM | 5.7 | > 1600 nM | Cc1cc(C(=O)Nc2ccc(-c3ccccc3S(N)(=O)=O)cc2)n(-c2ccc3ncnc(N)c3c2)n1 |  |
| 600 nM | > 21000 nM | 4.7 |  | Cc1cc(C(=O)Nc2ccc(-c3ccccc3S(N)(=O)=O)cc2)n(-c2ccccc2N)n1 |  |
|  | > 21000 nM | < 0 | > 1600 nM | Cc1cc(C(=O)Nc2ccc(-c3ccccc3S(N)(=O)=O)cc2)n(-c2cccc(C(N)=O)c2)n1 | half-life [1]: 3.9 h; clearance [4]: 4.67 mL/min/kg; logP [5]: 2.1; bioavailability [14]: 46%; half-life [12]: 3.1 h |
|  | > 21000 nM |  |  | Cc1cc(C(=O)Nc2ccc(-c3ccccc3S(N)(=O)=O)cc2)n(-c2cccc(CN)c2)n1 |  |
| 16 nM | > 21000 nM | 8.1 | > 1600 nM | Cc1cc(C(=O)Nc2ccc(-c3ccccc3S(N)(=O)=O)cc2)n(-c2ccc3nc(N)nc(N)c3c2)n1 |  |
| 12000 nM | > 21000 nM | 10 |  | Cc1cc(C(=O)Nc2ccc(-c3ccccc3S(N)(=O)=O)cc2)n(CCCCN)n1 |  |
| 61 nM | > 21000 nM |  | > 1600 nM | Cc1cc(C(=O)Nc2ccc(-c3ccccc3S(N)(=O)=O)cc2)n(-c2cccc(B(O)O)c2)n1 |  |
| 1300 nM | > 2100 nM | 7 |  | Cc1cc(C(=O)Nc2ccc(-c3ccccc3S(N)(=O)=O)cc2)n(-c2ccc(N)nc2)n1 |  |
| 5000 nM | > 21000 nM |  |  | Cc1cc(C(=O)Nc2ccc(-c3ccccc3S(N)(=O)=O)cc2)n(-c2cccc(S(N)(=O)=O)c2)n1 |  |
| 3000 nM | > 21000 nM | 4.7 |  | Cc1cc(C(=O)Nc2ccc(-c3ccccc3S(N)(=O)=O)cc2)n(-c2ccc(N)cc2)n1 |  |
